Test results as given in ChEMBL document CHEMBL1687839, “ISAba825, a functional insertion sequence modulating genomic plasticity and bla(OXA-58) expression in Acinetobacter baumannii” (2011).
Values after ≈ are worked out from the molar mass of the structure shown.

Columns and labels:
Assay type in all cases: functional
Acinetobacter baumannii [1] = test: Antibacterial activity against Acinetobacter baumannii ATCC 17978 harboring plasmid 1266
Acinetobacter baumannii [2] = test: Antibacterial activity against Acinetobacter baumannii ATCC 17978
Acinetobacter baumannii [3] = test: Ratio of MIC for Acinetobacter baumannii ATCC 17978 harboring plasmid pWHP825 to MIC for Acinetobacter baumannii ATCC 17978 harboring plasmid 1266
Acinetobacter baumannii [4] = test: Antibacterial activity against Acinetobacter baumannii ATCC 17978 harboring pAB880
Acinetobacter baumannii [5] = test: Antibacterial activity against Acinetobacter baumannii ATCC 17978 harboring plasmid directed expression of beta-lactamase OXA-58 under an ISAba825-ISAba3 hybrid and ISAba3-derived promoter sequence
Acinetobacter baumannii [6] = test: Antibacterial activity against Acinetobacter baumannii ATCC 17978 harboring plasmid directed expression of beta-lactamase OXA-58 under an ISAba3 promoter
Acinetobacter baumannii [7] = test: Antibacterial activity against Acinetobacter baumannii Ab880 overexpressing beta-lactamase OXA-58 under the control of ISAba825 insertion sequence

Structure (SMILES) | MIC (Acinetobacter baumannii [1]) | MIC (Acinetobacter baumannii [2]) | Ratio (Acinetobacter baumannii [3]) | MIC (Acinetobacter baumannii [4]) | MIC (Acinetobacter baumannii [5]) | MIC (Acinetobacter baumannii [6]) | MIC (Acinetobacter baumannii [7])
C[C@@H](O)[C@H]1C(=O)N2C(C(=O)O)=C(SCCNC=N)C[C@H]12 [IMIPENEM ANHYDROUS] | 0.25 µg/mL (≈ 0.835 µM) | 0.25 µg/mL (≈ 0.835 µM) | 128 | 16 µg/mL (≈ 53.4 µM) | 32 µg/mL (≈ 107 µM) | 0.5 µg/mL (≈ 1.67 µM) | 16 µg/mL (≈ 53.4 µM)
C[C@@H](O)[C@H]1C(=O)N2C(C(=O)O)=C(S[C@@H]3CN[C@H](C(=O)N(C)C)C3)[C@H](C)[C@H]12 [MEROPENEM] | 0.25 µg/mL (≈ 0.652 µM) | 0.25 µg/mL (≈ 0.652 µM) | 64 | 8 µg/mL (≈ 20.9 µM) | 16 µg/mL (≈ 41.7 µM) | 0.5 µg/mL (≈ 1.3 µM) | 16 µg/mL (≈ 41.7 µM)
